# Experimental data from patent US20120022048A1, “Anti-proliferative substituted pyrazolo[3,4-d]pyrimidines derivatives (SPP) to inhibit immune activation, virus replication and tumor growth” (priority 2010, published 2012).
# Tests used:
# Format in all cases: cell-based
# [1] = tested on: primary human CD4 T-lymphocytes; test: Cell hyperproliferation in primary T cells (CFSE staining, mitotic index); conditions: for mitotic index %: % of not treated control (100%), day 10, HU 100 μM; for mitotic index % / anti-proliferative activity (in words): SPPs 10 μM, Imatinib 10 μM; for anti-proliferative activity (in words): compared with HU 100 μM, HU+ddI or untreated control; for Anti-proliferative capacity: class symbol, Table 6
# Method: We built up an experimental model using primary T cells to study the activity of the compounds on induced hyperproliferation of cells, which is a characteristic of both chronic viral diseases and cancer including HIV and leukemia.
# (§1) Unstimulated (quiescent/resting, day 0 to 5) primary human CD4 T-lymphocytes were obtained by magnetic bead separation from healthy, normal donors. After five days in culture, cells were activated with PHA (5 μg/ml) to induce hyperproliferation then, at day 7, IL-2 (20 U/ml) was added (stimulated, day 6 to 10). All available compounds were tested at a concentration of 10 μM. […] At day 10, cells were harvested. Proliferation of T cells, cultured as described above, was studied by staining the cells with carboxyfluorescein diacetate-succinimidyl ester (CFSE) at day 0 (immediately after infection). For data analysis, the mitotic index (M) was used, calculating the sum of mitotic events at each proliferation cycle. To extract a relative number, M was normalized to the total number of cells acquired using the equation M=Σ[(Xn(T)−Xn(T)/2^n)], that gives the number of mitotic events from the experimentally obtained values of the proportion of T cells under each division peak n (Xn) and the total T cells (T). To study the effect of the compounds on apoptosis T cells were cultured as described above and at day 10 cells were stained with Annexin V and 7-AAD, in order to determine the percentage of total apoptotic events.
# [2] = tested on: primary human CD4 T-lymphocytes; test: Apoptosis in primary CD4 T cells (Annexin V and 7-AAD staining); conditions: SPPs 10 μM; for apoptotic effect (in words): compared with HU 100 μM, HU+ddI or untreated control; for apoptosis %: total apoptotic events compared to untreated control, day 10, Imatinib 10 μM, HU 100 μM, ddI 2 μM
# Method: as §1
# We determined the capacity of the compounds to affect the percentages of apoptotic events after 10 days of treatment in primary CD4 T cells.
# [3] = tested on: HIV-1 NL 4.3; test: HIV-1 replication in activated T cells (PBMC, p24 Ag ELISA); conditions: for anti-HIV activity in activated T cells (in words): SPPs 10 μM, compared with HU 100 μM, HU+ddI or untreated control; for HIV activated cells (% p24 compared to not treated control): activated T cells, 7 days, SPPs and Imatinib 10 μM, HU 100 μM, ddI 2 μM; for Antiviral activity in activated cells: class symbol, Table 6
# Method: The experimental setup described below allows us to detect direct antiviral activity of a compound.
# Human PBMC, obtained from healthy, normal donors, were stimulated for two days with PHA 5 μg/ml. Then cells were infected with HIV-1 NL 4.3, IL-2 was added (20 U/ml), cells were plated (10^5 cells per well in 200 μl) and drug treatment started. […] The control was left untreated. After 7 days of incubation at 37° C. supernatants were harvested and HIV-1 p24 Ag was measured by ELISA.
# [4] = tested on: HIV-1 NL 4.3; test: HIV-1 replication in quiescent CD4 T cells (p24 Ag ELISA); conditions: for anti-HIV activity in quiescent cells (in words) / HIV quiescent cells (percentage p24 compared to the untreated control): SPPs 10 μM; for anti-HIV activity in quiescent cells (in words): compared with HU 100 μM, HU+ddI or untreated control; for HIV quiescent cells (percentage p24 compared to the untreated control): quiescent CD4 T cells, day 10, HU 100 μM, HU 100 μM+ddI 2 μM; for Antiviral activity in quiescent cells: class symbol, Table 6
# Method: Unstimulated (quiescent/resting, day 0 to 5) human CD4 T-lymphocytes, obtained by magnetic bead separation from healthy, normal donors, were infected with HIV-1 NL 4.3. After five days in culture, cells were stimulated with PHA (5 μg/ml) to induce proliferation, and then, at day 7, IL-2 (20 U/ml) was added (stimulated, day 6 to 10). All available compounds were tested at a concentration of 10 μM. HU 100 μM and HU 100 μM+ddI 2 μM were also employed as comparators and the negative control was left untreated. At day 10, cells and supernatants were harvested and HIV-1 p24 Ag was measured by ELISA. HIV replication was expressed as percentage p24 compared to the untreated control.
structure (smiles),measurement,setting,value
"Cc1ccc(NC(=O)c2ccc(CN3CCN(C)CC3)cc2)cc1Nc1nccc(-c2cccnc2)n1 [Imatinib, reference compound]",inhibition at 10 µM,"[1]; Homo sapiens, T-lymphocyte, read-out: decrease/inhibition of cell proliferation compared to not treated control",62%
same,apoptotic effect (in words),[2],no significant increases
same,anti-HIV activity in activated T cells (in words),[3],comparable antiviral capacity
C(=Cn1ncc2c(N3CCCCCC3)ncnc21)c1ccccc1 [VS1-001],mitotic index %,[1],52.0 ± 2.0%
same,anti-proliferative activity (in words),[1],less effective than HU
same,apoptotic effect (in words),[2],did not induce apoptosis
same,apoptosis %,[2],80.3 ± 19.2%
same,anti-HIV activity in quiescent cells (in words),[4],very effective inhibitor of HIV replication
same,HIV quiescent cells (percentage p24 compared to the untreated control),[4],19.6 ± 20.3%
same,anti-HIV activity in activated T cells (in words),[3],very effective inhibitor of HIV replication
same,HIV activated cells (% p24 compared to not treated control),[3],12.5 ± 2.3%
CCCCNc1ncnc2c1cnn2CC(Br)c1ccccc1 (stereo not shown) [VS1-006],mitotic index %,[1],54.0%
same,anti-proliferative activity (in words),[1],not effective
same,HIV quiescent cells (percentage p24 compared to the untreated control),[4],17.8 ± 2.5%
same,anti-HIV activity in activated T cells (in words),[3],not effective
same,HIV activated cells (% p24 compared to not treated control),[3],100.5 ± 26.4%
BrC(Cn1ncc2c(NC3CCCCC3)ncnc21)c1ccccc1 (stereo not shown) [VS1-007],mitotic index %,[1],87.0%
same,anti-proliferative activity (in words),[1],poor performance
same,HIV quiescent cells (percentage p24 compared to the untreated control),[4],75.7 ± 18.8%
same,anti-HIV activity in activated T cells (in words),[3],no effect on HIV replication
same,HIV activated cells (% p24 compared to not treated control),[3],70.6 ± 24.3%
CCCCNc1ncnc2c1cnn2CC(Cl)c1ccccc1 (stereo not shown) [VS1-008],mitotic index %,[1],8.1 ± 1.8%
same,anti-proliferative activity (in words),[1],good activity against proliferation (even better than HU though 10 times less concentrated)
same,Anti-proliferative capacity,[1],"+++ (excellent (+++, greater than 70% activity))"
same,apoptotic effect (in words),[2],did not induce apoptosis
same,apoptosis %,[2],115.8 ± 39.4%
same,anti-HIV activity in quiescent cells (in words),[4],good activity
same,Antiviral activity in quiescent cells,[4],"+++ (excellent (+++, greater than 70% activity))"
same,HIV quiescent cells (percentage p24 compared to the untreated control),[4],11.2 ± 7.7%
same,anti-HIV activity in activated T cells (in words),[3],good activity
same,HIV activated cells (% p24 compared to not treated control),[3],11.8 ± 5.6%
same,Antiviral activity in activated cells,[3],"+++ (excellent (+++, greater than 70% activity))"
C(=Cn1ncc2c(N3CCOCC3)ncnc21)c1ccccc1 [VS1-009],mitotic index %,[1],88.4 ± 19.8%
same,anti-proliferative activity (in words),[1],very little activity
same,apoptosis %,[2],114.2 ± 21.3%
same,HIV quiescent cells (percentage p24 compared to the untreated control),[4],71.8 ± 42.9%
same,anti-HIV activity in activated T cells (in words),[3],very little activity
same,HIV activated cells (% p24 compared to not treated control),[3],44.8 ± 14.9%
C(=Cn1ncc2c(NC3CCCCC3)ncnc21)c1ccccc1 [VS1-012],mitotic index %,[1],68.8 ± 10.7%
same,apoptosis %,[2],46.3 ± 9.1%
same,HIV quiescent cells (percentage p24 compared to the untreated control),[4],10.9 ± 5.0%
same,anti-HIV activity in activated T cells (in words),[3],better anti-HIV activity than HU
same,HIV activated cells (% p24 compared to not treated control),[3],18.6 ± 2.9%
C(=Cn1ncc2c(NCc3ccccc3)ncnc21)c1ccccc1 [VS1-013],mitotic index %,[1],85.6 ± 3.6%
same,apoptosis %,[2],121.3 ± 14.1%
same,HIV quiescent cells (percentage p24 compared to the untreated control),[4],63.3 ± 26.0%
same,HIV activated cells (% p24 compared to not treated control),[3],116.4 ± 21.1%
C(=Cn1ncc2c(NCCc3ccccc3)ncnc21)c1ccccc1 [VS1-014],mitotic index %,[1],76.9 ± 2.7%
same,apoptosis %,[2],135.2 ± 19.3%
same,HIV quiescent cells (percentage p24 compared to the untreated control),[4],74.3 ± 22.8%
same,HIV activated cells (% p24 compared to not treated control),[3],92.4 ± 24.3%
CSc1nc(Nc2cccc(Cl)c2)c2cnn(C=Cc3ccccc3)c2n1 [VS1-016],mitotic index %,[1],71.2 ± 5.8%
same,apoptosis %,[2],88.0 ± 12.7%
same,HIV quiescent cells (percentage p24 compared to the untreated control),[4],23.6 ± 22.1%
same,anti-HIV activity in activated T cells (in words),[3],better anti-HIV activity than HU
same,HIV activated cells (% p24 compared to not treated control),[3],21.0 ± 6.3%
CSc1nc(NCc2ccc(F)cc2)c2cnn(CC(Cl)c3ccccc3)c2n1 (stereo not shown) [VS1-017],mitotic index %,[1],34.5 ± 6.7%
same,anti-proliferative activity (in words),[1],poor activity
same,apoptosis %,[2],130.0 ± 19.3%
same,HIV quiescent cells (percentage p24 compared to the untreated control),[4],38.7 ± 44.5%
same,anti-HIV activity in activated T cells (in words),[3],poor activity
same,HIV activated cells (% p24 compared to not treated control),[3],63.4 ± 31.2%
BrC(Cn1ncc2c(N3CCCCCC3)ncnc21)c1ccccc1 (stereo not shown) [VS1-018],mitotic index %,[1],42.4 ± 21.8%
same,anti-proliferative activity (in words),[1],poor activity
same,apoptotic effect (in words),[2],proapoptotic
same,apoptosis %,[2],176.0 ± 22.5%
same,HIV quiescent cells (percentage p24 compared to the untreated control),[4],11.5 ± 3.2%
same,anti-HIV activity in activated T cells (in words),[3],poor activity
same,HIV activated cells (% p24 compared to not treated control),[3],93.6 ± 28.3%
CSc1nc(NCc2ccccc2)c2cnn(C=Cc3ccccc3)c2n1 [VS1-019],mitotic index %,[1],81.3 ± 18.9%
same,anti-proliferative activity (in words),[1],poor activity
same,apoptosis %,[2],94.0 ± 11.2%
same,HIV quiescent cells (percentage p24 compared to the untreated control),[4],46.7 ± 31.3%
same,anti-HIV activity in activated T cells (in words),[3],poor activity
same,HIV activated cells (% p24 compared to not treated control),[3],89.3 ± 25.5%
CCSc1nc(NCc2ccccc2)c2cnn(CC(Cl)c3ccccc3)c2n1 (stereo not shown) [VS1-020],mitotic index %,[1],21.9 ± 13.0%
same,anti-proliferative activity (in words),[1],as anti-proliferative or even better than HU
same,apoptotic effect (in words),[2],proapoptotic
same,apoptosis %,[2],174.7 ± 25.9%
same,anti-HIV activity in quiescent cells (in words),[4],effective against HIV
same,HIV quiescent cells (percentage p24 compared to the untreated control),[4],9.2 ± 3.7%
same,anti-HIV activity in activated T cells (in words),[3],effective against HIV
same,HIV activated cells (% p24 compared to not treated control),[3],26.3 ± 6.1%
CCCCNc1ncnc2c1cnn2C=Cc1ccccc1 [VS1-021],mitotic index %,[1],86.2 ± 13.7%
same,anti-proliferative activity (in words),[1],poor activity
same,apoptosis %,[2],108.0 ± 21.7%
same,HIV quiescent cells (percentage p24 compared to the untreated control),[4],115.4 ± 40.4%
same,anti-HIV activity in activated T cells (in words),[3],poor activity
same,HIV activated cells (% p24 compared to not treated control),[3],97.2 ± 30.3%
CSc1nc(Nc2cccc(Cl)c2)c2cnn(CC(Cl)c3ccc(F)cc3)c2n1 (stereo not shown) [VS1-022],mitotic index %,[1],10.4 ± 11.4%
same,anti-proliferative activity (in words),[1],as anti-proliferative or even better than HU
same,apoptotic effect (in words),[2],proapoptotic
same,apoptosis %,[2],178.0 ± 25.7%
same,anti-HIV activity in quiescent cells (in words),[4],effective against HIV
same,HIV quiescent cells (percentage p24 compared to the untreated control),[4],5.4 ± 3.1%
same,anti-HIV activity in activated T cells (in words),[3],effective against HIV
same,HIV activated cells (% p24 compared to not treated control),[3],37.1 ± 19.8%
CCCNc1nc(N(C)C)nc2c1cnn2CC(Cl)c1ccccc1 (stereo not shown) [VS1-023],mitotic index %,[1],33.2 ± 6.5%
same,apoptotic effect (in words),[2],not proapoptotic
same,apoptosis %,[2],116.0 ± 14.7%
same,HIV quiescent cells (percentage p24 compared to the untreated control),[4],8.7 ± 5.6%
same,HIV activated cells (% p24 compared to not treated control),[3],36.6 ± 15.1%
CCCCNc1nc(SC)nc2c1cnn2CC(Cl)c1ccccc1 (stereo not shown) [VS1-024],mitotic index %,[1],45.5 ± 10.9%
same,anti-proliferative activity (in words),[1],equal to or a little less anti-proliferative than HU
same,Anti-proliferative capacity,[1],"++ (good (++, 50 to 70% activity))"
same,apoptotic effect (in words),[2],not proapoptotic
same,apoptosis %,[2],126.7 ± 23.9%
same,anti-HIV activity in quiescent cells (in words),[4],slightly less potent against HIV
same,Antiviral activity in quiescent cells,[4],"+++ (excellent (+++, greater than 70% activity))"
same,HIV quiescent cells (percentage p24 compared to the untreated control),[4],24.3 ± 9.4%
same,HIV activated cells (% p24 compared to not treated control),[3],10.1 ± 7.4%
same,Antiviral activity in activated cells,[3],"+++ (excellent (+++, greater than 70% activity))"
CCCNc1nc(SCCN2CCOCC2)nc2c1cnn2CC(Cl)c1ccccc1 (stereo not shown) [VS1-025],mitotic index %,[1],61.6 ± 12.7%
same,anti-proliferative activity (in words),[1],poor activity
same,apoptosis %,[2],139.3 ± 20.8%
same,HIV quiescent cells (percentage p24 compared to the untreated control),[4],23.6 ± 14.5%
same,anti-HIV activity in activated T cells (in words),[3],poor activity
same,HIV activated cells (% p24 compared to not treated control),[3],74.2 ± 31.7%
